Assay results: patent US11718604B2, “4-amino-6-(1,3-benzodioxole)picolinates and their use as herbicides” (Dow AgroSciences LLC, priority 2018, dated 2023)

Assays:
Format in all cases: in vivo
[1] = test system: SETFA: giant foxtail (Setaria faberi); assay: Post-emergent herbicidal test, giant foxtail; conditions: post-emergence, 336 h, 14 days after application, read-out: Visual Growth Reduction (%) 14 Days After Application SETFA; for pest or weed control at 17.5 g/ha: 17.5 g ai/ha; for pest or weed control at 35 g/ha: 35 g ai/ha; for pest or weed control at 70 g/ha: 70 g ai/ha; for pest or weed control at 140 g/ha: 140 g ai/ha
Method in brief: (§1)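 Seedlings grown in greenhouse (23-29 °C day, 22-28 °C night, ~15 h photoperiod) to first or second true leaf stage were sprayed overhead at 187 L/ha with compound in acetone/DMSO/water/isopropanol/crop oil/Triton X-155, at the high rate and ½× to 1/16× dilutions. Injury scored visually after 14 d, 0 (none) to 100% (complete kill), relative to untreated plants.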

[2] = test system: CIRAR: Canada thistle (Cirsium arvense); assay: Post-emergent herbicidal test, Canada thistle; conditions: post-emergence, 336 h, 14 days after application, read-out: Visual Growth Reduction (%) 14 Days After Application CIRAR; for pest or weed control at 17.5 g/ha: 17.5 g ai/ha; for pest or weed control at 35 g/ha: 35 g ai/ha; for pest or weed control at 70 g/ha: 70 g ai/ha; for pest or weed control at 140 g/ha: 140 g ai/ha
Method in brief: as §1

[3] = test system: IPOHE: ivyleaf morningglory (Ipomoea hederacea); assay: Post-emergent herbicidal test, ivyleaf morningglory; conditions: post-emergence, 336 h, 14 days after application, read-out: Visual Growth Reduction (%) 14 Days After Application IPOHE; for pest or weed control at 17.5 g/ha: 17.5 g ai/ha; for pest or weed control at 35 g/ha: 35 g ai/ha; for pest or weed control at 70 g/ha: 70 g ai/ha; for pest or weed control at 140 g/ha: 140 g ai/ha
Method in brief: as §1

[4] = test system: VIOTR: wild violet (Viola tricolor); assay: Post-emergent herbicidal test, wild violet; conditions: post-emergence, 336 h, 14 days after application, read-out: Visual Growth Reduction (%) 14 Days After Application VIOTR; for pest or weed control at 17.5 g/ha: 17.5 g ai/ha; for pest or weed control at 35 g/ha: 35 g ai/ha; for pest or weed control at 70 g/ha: 70 g ai/ha; for pest or weed control at 140 g/ha: 140 g ai/ha
Method in brief: as §1

[5] = test system: ABUTH: velvetleaf (Abutilon theophrasti); assay: Post-emergent herbicidal test, velvetleaf; conditions: post-emergence, 336 h, 14 days after application, read-out: Visual Growth Reduction (%) 14 Days After Application ABUTH; for pest or weed control at 17.5 g/ha: 17.5 g ai/ha; for pest or weed control at 35 g/ha: 35 g ai/ha; for pest or weed control at 70 g/ha: 70 g ai/ha; for pest or weed control at 140 g/ha: 140 g ai/ha
Method in brief: as §1

[6] = test system: EPHHL: wild poinsettia (Euphorbia heterophylla); assay: Post-emergent herbicidal test, wild poinsettia; conditions: post-emergence, 336 h, 14 days after application, read-out: Visual Growth Reduction (%) 14 Days After Application EPHHL; for pest or weed control at 17.5 g/ha: 17.5 g ai/ha; for pest or weed control at 35 g/ha: 35 g ai/ha; for pest or weed control at 70 g/ha: 70 g ai/ha; for pest or weed control at 140 g/ha: 140 g ai/ha
Method in brief: as §1

[7] = test system: ECHCG: barnyardgrass (Echinochloa crus-galli); assay: Post-emergent herbicidal test, barnyardgrass; conditions: post-emergence, 336 h, 14 days after application, read-out: Visual Growth Reduction (%) 14 Days After Application ECHCG; for pest or weed control at 17.5 g/ha: 17.5 g ai/ha; for pest or weed control at 35 g/ha: 35 g ai/ha; for pest or weed control at 70 g/ha: 70 g ai/ha; for pest or weed control at 140 g/ha: 140 g ai/ha
Method in brief: as §1

[8] = test system: CYPES: yellow nutsedge (Cyperus esculentus); assay: Post-emergent herbicidal test, yellow nutsedge; conditions: post-emergence, 336 h, 14 days after application, read-out: Visual Growth Reduction (%) 14 Days After Application CYPES; for pest or weed control at 17.5 g/ha: 17.5 g ai/ha; for pest or weed control at 35 g/ha: 35 g ai/ha; for pest or weed control at 70 g/ha: 70 g ai/ha; for pest or weed control at 140 g/ha: 140 g ai/ha
Method in brief: as §1

[9] = test system: BRSNN: oilseed rape, canola (Brassica napus); assay: Post-emergent herbicidal test, oilseed rape; conditions: post-emergence, 336 h, 14 days after application, read-out: Visual Growth Reduction (%) 14 Days After Application BRSNN; for pest or weed control at 17.5 g/ha: 17.5 g ai/ha; for pest or weed control at 35 g/ha: 35 g ai/ha; for pest or weed control at 70 g/ha: 70 g ai/ha; for pest or weed control at 140 g/ha: 140 g ai/ha
Method in brief: as §1

[10] = test system: SORVU: shattercane (Sorghum bicolor); assay: Post-emergent herbicidal test, shattercane; conditions: post-emergence, 336 h, 14 days after application, read-out: Visual Growth Reduction (%) 14 Days After Application SORVU; for pest or weed control at 17.5 g/ha: 17.5 g ai/ha; for pest or weed control at 35 g/ha: 35 g ai/ha; for pest or weed control at 70 g/ha: 70 g ai/ha; for pest or weed control at 140 g/ha: 140 g ai/ha
Method in brief: as §1

[11] = test system: DIGSA: large crabgrass (Digitaria sanguinalis); assay: Post-emergent herbicidal test, large crabgrass; conditions: post-emergence, 336 h, 14 days after application, read-out: Visual Growth Reduction (%) 14 Days After Application DIGSA; for pest or weed control at 17.5 g/ha: 17.5 g ai/ha; for pest or weed control at 35 g/ha: 35 g ai/ha; for pest or weed control at 70 g/ha: 70 g ai/ha; for pest or weed control at 140 g/ha: 140 g ai/ha
Method in brief: as §1

COC(=O)c1nc(-c2ccc(I)c3c2OC(F)(F)O3)c(F)c(N)c1Cl [Compound 10]
pest or weed control at 17.5 g/ha [1]: 0% | pest or weed control at 35 g/ha [1]: 0% | pest or weed control at 70 g/ha [1]: 0% | pest or weed control at 140 g/ha [1]: 0% | pest or weed control at 17.5 g/ha [2]: 60% | pest or weed control at 35 g/ha [2]: 70% | pest or weed control at 70 g/ha [2]: 70% | pest or weed control at 140 g/ha [2]: 75% | pest or weed control at 17.5 g/ha [3]: 0% | pest or weed control at 35 g/ha [3]: 0% | pest or weed control at 70 g/ha [3]: 0% | pest or weed control at 140 g/ha [3]: 0% | pest or weed control at 17.5 g/ha [4]: 0% | pest or weed control at 35 g/ha [4]: 0% | pest or weed control at 70 g/ha [4]: 0% | pest or weed control at 140 g/ha [4]: 0% | pest or weed control at 17.5 g/ha [5]: 65% | pest or weed control at 35 g/ha [5]: 70% | pest or weed control at 70 g/ha [5]: 75% | pest or weed control at 140 g/ha [5]: 75% | pest or weed control at 17.5 g/ha [6]: 0% | pest or weed control at 35 g/ha [6]: 0% | pest or weed control at 70 g/ha [6]: 0% | pest or weed control at 140 g/ha [6]: 0% | pest or weed control at 17.5 g/ha [7]: 0% | pest or weed control at 35 g/ha [7]: 0% | pest or weed control at 70 g/ha [7]: 0% | pest or weed control at 140 g/ha [7]: 0% | pest or weed control at 17.5 g/ha [8]: 0% | pest or weed control at 35 g/ha [8]: 0% | pest or weed control at 70 g/ha [8]: 0% | pest or weed control at 140 g/ha [8]: 0% | pest or weed control at 17.5 g/ha [9]: 50% | pest or weed control at 35 g/ha [9]: 60% | pest or weed control at 70 g/ha [9]: 65% | pest or weed control at 140 g/ha [9]: 70% | pest or weed control at 17.5 g/ha [10]: 0% | pest or weed control at 35 g/ha [10]: 0% | pest or weed control at 70 g/ha [10]: 0% | pest or weed control at 140 g/ha [10]: 0% | pest or weed control at 17.5 g/ha [11]: 0% | pest or weed control at 35 g/ha [11]: 0% | pest or weed control at 70 g/ha [11]: 0% | pest or weed control at 140 g/ha [11]: 0%

COC(=O)c1nc(-c2cccc3c2OCO3)c(F)c(N)c1Cl [Compound 2]
pest or weed control at 17.5 g/ha [1]: 0% | pest or weed control at 35 g/ha [1]: 0% | pest or weed control at 70 g/ha [1]: 0% | pest or weed control at 140 g/ha [1]: 0% | pest or weed control at 17.5 g/ha [2]: 60% | pest or weed control at 35 g/ha [2]: 100% | pest or weed control at 70 g/ha [2]: 98% | pest or weed control at 140 g/ha [2]: 98% | pest or weed control at 17.5 g/ha [3]: 0% | pest or weed control at 35 g/ha [3]: 0% | pest or weed control at 70 g/ha [3]: 10% | pest or weed control at 140 g/ha [3]: 25% | pest or weed control at 17.5 g/ha [4]: 0% | pest or weed control at 35 g/ha [4]: 0% | pest or weed control at 70 g/ha [4]: 0% | pest or weed control at 140 g/ha [4]: 10% | pest or weed control at 17.5 g/ha [5]: 50% | pest or weed control at 35 g/ha [5]: 60% | pest or weed control at 70 g/ha [5]: 75% | pest or weed control at 140 g/ha [5]: 95% | pest or weed control at 17.5 g/ha [6]: 0% | pest or weed control at 35 g/ha [6]: 0% | pest or weed control at 70 g/ha [6]: 0% | pest or weed control at 140 g/ha [6]: 0% | pest or weed control at 17.5 g/ha [7]: 0% | pest or weed control at 35 g/ha [7]: 0% | pest or weed control at 70 g/ha [7]: 0% | pest or weed control at 140 g/ha [7]: 0% | pest or weed control at 17.5 g/ha [8]: 0% | pest or weed control at 35 g/ha [8]: 0% | pest or weed control at 70 g/ha [8]: 10% | pest or weed control at 140 g/ha [8]: 30% | pest or weed control at 17.5 g/ha [9]: 30% | pest or weed control at 35 g/ha [9]: 40% | pest or weed control at 70 g/ha [9]: 85% | pest or weed control at 140 g/ha [9]: 90% | pest or weed control at 17.5 g/ha [10]: 0% | pest or weed control at 35 g/ha [10]: 0% | pest or weed control at 70 g/ha [10]: 0% | pest or weed control at 140 g/ha [10]: 0% | pest or weed control at 17.5 g/ha [11]: 0% | pest or weed control at 35 g/ha [11]: 0% | pest or weed control at 70 g/ha [11]: 0% | pest or weed control at 140 g/ha [11]: 0%
